Experimental data: the NIST ThermoML archive (doi:10.1007/s10765-009-0593-3)

Test: xn = mol fraction of the nth substance listed
Settings: 101 kPa, Liquid; for speed of sound: Pulse-echo method

CCCOCC(C)OCC(C)O (stereo not given) [1-(1-methyl-2-propoxyethoxy)-2-propanol] + CCCCN(CCCC)CCCC
Settings	mass density, 288.15 K [kg/m3]	mass density, 293.15 K [kg/m3]	mass density, 298.15 K [kg/m3]	mass density, 303.15 K [kg/m3]	mass density, 308.15 K [kg/m3]	speed of sound, 288.15 K [m/s]	speed of sound, 293.15 K [m/s]	speed of sound, 298.15 K [m/s]	speed of sound, 303.15 K [m/s]	speed of sound, 308.15 K [m/s]
x1 = 0.1122	794.307	790.425	786.535	782.639	778.737	1282.3	1263	1243.9	1225	1206.3
x1 = 0.1665	800.621	796.684	792.738	788.781	784.827	1282.3	1262.8	1243.7	1224.8	1206.1
x1 = 0.2084	805.602	801.628	797.652	793.661	789.668	1282.3	1262.9	1243.8	1224.9	1206.2
x1 = 0.2538	811.153	807.13	803.115	799.083	795.057	1282.4	1263.2	1244.1	1225.3	1206.5
x1 = 0.313	818.607	814.554	810.479	806.404	802.329	1282.5	1264	1244.9	1226.1	1207.4
x1 = 0.3558	824.155	820.06	815.967	811.844	807.734	1282.8	1264.8	1245.7	1227	1208.3
x1 = 0.4148	832.006	827.869	823.733	819.576	815.399	1283.3	1266.2	1247.2	1228.5	1209.8
x1 = 0.4472	836.41	832.261	828.099	823.913	819.704	1283.7	1267.1	1248.1	1229.4	1210.8
x1 = 0.5008	843.844	839.656	835.454	831.251	826.995	1284.5	1268.8	1249.8	1231.2	1212.6
x1 = 0.5451	850.136	845.938	841.706	837.473	833.167	1285.5	1270.3	1251.5	1232.8	1214.3
x1 = 0.6077	859.289	855.06	850.786	846.555	842.165	1287.2	1272.8	1254	1235.4	1217
x1 = 0.6566	866.709	862.46	858.15	853.912	849.462	1288.9	1274.9	1256.2	1237.7	1219.3
x1 = 0.7143	875.786	871.507	867.175	862.905	858.43	1291.3	1277.5	1258.8	1240.4	1222.1
x1 = 0.7514	881.851	877.544	873.195	868.91	864.43	1293.2	1279.3	1260.7	1242.3	1224.1
x1 = 0.8016	890.298	885.967	881.597	877.285	872.799	1296.1	1281.7	1263.2	1245	1226.8
x1 = 0.856	897.74	895.367	890.981	886.63	882.174	1299.9	1284.4	1266.1	1247.9	1230
x1 = 0.904	908.188	903.8	899.4	894.989	890.566	1303.7	1286.8	1268.7	1250.6	1232.8
x1 = 0.9553	917.078	912.677	908.256	903.826	899.408	1308.3	1289.5	1271.5	1253.5	1235.9
